From PubChem BioAssay AID2060611 (Molecular Pharmacology Branch, DTP, NCI, 2025)

Test system: 628569-122-R-J1-PDC complex spheroid viability
Assay: Anticancer human tumor 628569-122-R-J1-PDC patient-derived head and neck squamous carcinoma cell line growth inhibition [CLK]
Details: for IC50: curve of first compound; for viability, T/C: stronger effect = lower value
From the text: A high-throughput screen of multi-cell type tumor spheroids was designed to identify active combinations of […] and targeted small molecules. Complex spheroids include a stromal component modeled by human endothelial cells (HUVEC) and fibroblasts modeled by human mesenchymal stem cells (MSCs). The concentration ranges selected for each drug and investigational agent were based upon clinically achievable concentrations if the clinical Cmax of the agent was known.
Compounds. The drugs and investigational agents: cirtuvivint (SM08502; NSC835563), CC-671 (NSC850746), vemurafenib (NSC761431), tapotoclax (NSC804041), sotorasib (NSC818433), adagrasib (NSC831453), MRTX-1133 (NSC836407), BAY2416964 (NSC825713), copanlisib (NSC816437), inavolisib (NSC800729), abemaciclib (NSC768073), osimertinib (NSC779217), entinostat (NSC756642), eltanexor (KPT-8602, NSC794443), venetoclax (NSC766270), ceralasertib (NSC777638), bortezomib (NSC756655), olaparib (NSC753686), talazoparib (NSC767125), alisertib (NSC759677), peposertib (NSC802822), gemcitabine (NSC613327), 5-fluorouracil (NSC19893), SN-38 (NSC673596), oxaliplatin (NSC266046), paclitaxel (NSC125973), and doxorubicin (NSC123127), were obtained from the National Cancer Institute (NCI) Developmental Therapeutics Program Chemical Repository. The FDA-approved anticancer drug set is available from the Developmental Therapeutics Program at https://dtp.cancer.gov/organization/dscb/obtaining/available plates.htm. […] The stock solutions were prepared in dimethyl sulfoxide (DMSO, Sigma-Aldrich, St. Louis, MO, cat. D2650), except for the platinum complexes which were prepared in saline (Quality Biological, Gaithersburg, MD, cat. 114-055-101), at 800-fold the tested concentration and stored at -70 degrees C prior to their use. All drugs and investigational agents were tested over a range starting from a high concentration at or near the clinical Cmax and decreasing in half-log increments. If the clinical Cmax for an agent had not been determined, the highest concentration tested was 10 microM.
Cell Culture. All cells were maintained in an incubator at 37 degrees C and 5% CO2 with 95% humidity. The PDC lines were cultured according to standard operating procedures established by the NCI PDMR. Briefly, all PDCs were thawed and cultured in Matrigel-coated flasks prepared with a working solution of 1X Ham's F-12 nutrient mix, without supplementation (Invitrogen, Waltham, MA, cat. 11765054), 100 U/mL penicillin-streptomycin (Invitrogen, cat. 15140122), and 2.5% Matrigel (Corning Inc., Corning, NY, cat. 354248) for the first three passages. The 947758-054-R-J2-PDC line was cultured in 6B/Colon 1A media, which includes advanced DMEM/F-12 (Thermo Fisher Scientific, cat. 12634028), 10 mM HEPES (Thermo Fisher Scientific, cat. 15630080), 1X GlutaMAX supplement (Thermo Fisher Scientific, cat. 35050061), 0.1 mg/mL primocin (InvivoGen, cat. ant-pm-2), 10% defined fetal bovine serum, heat inactivated (HyClone Laboratories Inc., cat. SH30070.03HI), 1.25 mM N-Acetyl-L-cysteine (Sigma-Aldrich, cat. A9165), 10 mM nicotinamide (Sigma-Aldrich, cat. N0636), 1X B-27 supplement (Thermo Fisher Scientific, cat. 17504044), 1X N-2 supplement (Thermo Fisher Scientific, cat. 17502048), and 10 microM Y-27632 dihydrochloride (Tocris Bioscience, cat. 1254). The 876862-298-R-J1-PDC was cultured in 6E media, which includes all 6B/Colon 1A media components plus 50% L-WRN conditioned media (ATCC, cat. CRL-3276), 50 ng/mL recombinant human EGF recombinant protein (hEGF; Thermo Fisher Scientific, cat. PHG0311), 10 ng/mL recombinant human fibroblast growth factor 10 (hGFG-10; PeproTech, cat. 100-26), 1 ng/mL recombinant human fibroblast growth factor 2 (hFGF-2; PeproTech, cat. 100-18B), and 1 µM prostaglandin E2 (PGE2; Tocris, cat. 2296). The 227483-062-R1-J1-PDC line was cultured in Panc media, containing all 6E components except hFGF-2, with the addition of 500 nM SB-431542 (Selleckchem, cat. S1067) and 10 nM gastrin (Tocris, cat. 3006). […]
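Note: spheroids exposed to agents for seven days before readout.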
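Throughout, for viability, T/C: 100% = DMSO vehicle control viability.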

C=CC(=O)Nc1cc(Nc2nccc(-c3cn(C)c4ccccc34)n2)c(OC)cc1N(C)CCN(C)C + CN1CCN(c2cc(C(=O)Nc3cc4cc(-c5cnn(C)c5)ccc4cn3)ccn2)CC1
IC50 (second compound 0.0316 µM): > 0.3 µM | IC50 (second compound 0.1 µM): 0.102 µM | IC50 (second compound 0.316 µM): < 0.000949 µM | IC50 (second compound 1 µM): < 0.000949 µM | IC50 (second compound 3.16 µM): < 0.000949 µM | IC50 (second compound 10 µM): < 0.000949 µM | viability, T/C (second compound 0.0316 µM, first compound 0.000949 µM): 98.5% | viability, T/C (second compound 0.0316 µM, first compound 0.003 µM): 112% | viability, T/C (second compound 0.0316 µM, first compound 0.00949 µM): 94.6% | viability, T/C (second compound 0.0316 µM, first compound 0.03 µM): 89.1% | viability, T/C (second compound 0.0316 µM, first compound 0.0949 µM): 98.4% | viability, T/C (second compound 0.0316 µM, first compound 0.3 µM): 59.1% | viability, T/C (second compound 0.1 µM, first compound 0.000949 µM): 56.9% | viability, T/C (second compound 0.1 µM, first compound 0.003 µM): 68.1% | viability, T/C (second compound 0.1 µM, first compound 0.00949 µM): 70.1% | viability, T/C (second compound 0.1 µM, first compound 0.03 µM): 57% | viability, T/C (second compound 0.1 µM, first compound 0.0949 µM): 52.9% | viability, T/C (second compound 0.1 µM, first compound 0.3 µM): 19.4% | viability, T/C (second compound 0.316 µM, first compound 0.000949 µM): 35.5% | viability, T/C (second compound 0.316 µM, first compound 0.003 µM): 44.2% | viability, T/C (second compound 0.316 µM, first compound 0.00949 µM): 38.6% | viability, T/C (second compound 0.316 µM, first compound 0.03 µM): 39% | viability, T/C (second compound 0.316 µM, first compound 0.0949 µM): 32.9% | viability, T/C (second compound 0.316 µM, first compound 0.3 µM): 14.3% | viability, T/C (second compound 1 µM, first compound 0.000949 µM): 5.92% | viability, T/C (second compound 1 µM, first compound 0.003 µM): 6.94% | viability, T/C (second compound 1 µM, first compound 0.00949 µM): 10.9% | viability, T/C (second compound 1 µM, first compound 0.03 µM): 5.22% | viability, T/C (second compound 1 µM, first compound 0.0949 µM): 7.08% | viability, T/C (second compound 1 µM, first compound 0.3 µM): 5.76% | viability, T/C (second compound 3.16 µM, first compound 0.000949 µM): 5.99% | viability, T/C (second compound 3.16 µM, first compound 0.003 µM): 7.83% | viability, T/C (second compound 3.16 µM, first compound 0.00949 µM): 7.06% | viability, T/C (second compound 3.16 µM, first compound 0.03 µM): 9.16% | viability, T/C (second compound 3.16 µM, first compound 0.0949 µM): 6.05% | viability, T/C (second compound 3.16 µM, first compound 0.3 µM): 4.8% | viability, T/C (second compound 10 µM, first compound 0.000949 µM): 2.23% | viability, T/C (second compound 10 µM, first compound 0.003 µM): 2.23% | viability, T/C (second compound 10 µM, first compound 0.00949 µM): 4.31% | viability, T/C (second compound 10 µM, first compound 0.03 µM): 2.44% | viability, T/C (second compound 10 µM, first compound 0.0949 µM): 2.36% | viability, T/C (second compound 10 µM, first compound 0.3 µM): 4.04%

Nc1ccccc1NC(=O)c1ccc(CNC(=O)OCc2cccnc2)cc1 + CN1CCN(c2cc(C(=O)Nc3cc4cc(-c5cnn(C)c5)ccc4cn3)ccn2)CC1
IC50 (second compound 0.0316 µM): 7.61 µM | IC50 (second compound 0.1 µM): 4.78 µM | IC50 (second compound 0.316 µM): < 0.0316 µM | IC50 (second compound 1 µM): < 0.0316 µM | IC50 (second compound 3.16 µM): < 0.0316 µM | IC50 (second compound 10 µM): < 0.0316 µM | viability, T/C (second compound 0.0316 µM, first compound 0.0316 µM): 93.5% | viability, T/C (second compound 0.0316 µM, first compound 0.1 µM): 103% | viability, T/C (second compound 0.0316 µM, first compound 0.316 µM): 98.4% | viability, T/C (second compound 0.0316 µM, first compound 1 µM): 162% | viability, T/C (second compound 0.0316 µM, first compound 3.16 µM): 153% | viability, T/C (second compound 0.0316 µM, first compound 10 µM): 27.7% | viability, T/C (second compound 0.1 µM, first compound 0.0316 µM): 54.7% | viability, T/C (second compound 0.1 µM, first compound 0.1 µM): 63% | viability, T/C (second compound 0.1 µM, first compound 0.316 µM): 76.5% | viability, T/C (second compound 0.1 µM, first compound 1 µM): 90.9% | viability, T/C (second compound 0.1 µM, first compound 3.16 µM): 91.7% | viability, T/C (second compound 0.1 µM, first compound 10 µM): 4.63% | viability, T/C (second compound 0.316 µM, first compound 0.0316 µM): 40.1% | viability, T/C (second compound 0.316 µM, first compound 0.1 µM): 30.8% | viability, T/C (second compound 0.316 µM, first compound 0.316 µM): 37.5% | viability, T/C (second compound 0.316 µM, first compound 1 µM): 30.2% | viability, T/C (second compound 0.316 µM, first compound 3.16 µM): 7.28% | viability, T/C (second compound 0.316 µM, first compound 10 µM): 4.48% | viability, T/C (second compound 1 µM, first compound 0.0316 µM): 12.7% | viability, T/C (second compound 1 µM, first compound 0.1 µM): 7.04% | viability, T/C (second compound 1 µM, first compound 0.316 µM): 7.87% | viability, T/C (second compound 1 µM, first compound 1 µM): 6.5% | viability, T/C (second compound 1 µM, first compound 3.16 µM): 7% | viability, T/C (second compound 1 µM, first compound 10 µM): 7.23% | viability, T/C (second compound 3.16 µM, first compound 0.0316 µM): 7.85% | viability, T/C (second compound 3.16 µM, first compound 0.1 µM): 3.97% | viability, T/C (second compound 3.16 µM, first compound 0.316 µM): 7.25% | viability, T/C (second compound 3.16 µM, first compound 1 µM): 5.7% | viability, T/C (second compound 3.16 µM, first compound 3.16 µM): 8.72% | viability, T/C (second compound 3.16 µM, first compound 10 µM): 6.19% | viability, T/C (second compound 10 µM, first compound 0.0316 µM): 4.78% | viability, T/C (second compound 10 µM, first compound 0.1 µM): 5.48% | viability, T/C (second compound 10 µM, first compound 0.316 µM): 5.47% | viability, T/C (second compound 10 µM, first compound 1 µM): 5.41% | viability, T/C (second compound 10 µM, first compound 3.16 µM): 10% | viability, T/C (second compound 10 µM, first compound 10 µM): 1.39%
